Measurements reported in PubChem BioAssay (NCI).
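Grown in 96-well plates, cells were treated for 48 hours with each compound at five concentrations. Insufficient inhibition: endpoint recorded as highest concentration tested. The concentration for full growth arrest is given as TGI.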

Key:
Experiment in all cases: inhibition of tumour cell growth, NCI panel, 48 h
HL-60(TB) leukemia = system: HL-60(TB) leukemia
UO-31 renal = system: UO-31 renal
NCI/ADR-RES ovarian = system: NCI/ADR-RES ovarian
SK-MEL-2 melanoma = system: SK-MEL-2 melanoma
MOLT-4 leukemia = system: MOLT-4 leukemia
OVCAR-8 ovarian = system: OVCAR-8 ovarian
HT29 colon = system: HT29 colon
HCT-15 colon = system: HCT-15 colon
OVCAR-3 ovarian = system: OVCAR-3 ovarian
SF-295 CNS = system: SF-295 CNS
MCF7 breast = system: MCF7 breast
NCI-H226 lung = system: NCI-H226 lung
NCI-H522 lung = system: NCI-H522 lung
IGROV1 ovarian = system: IGROV1 ovarian
UACC-62 melanoma = system: UACC-62 melanoma
NCI-H460 lung = system: NCI-H460 lung
RXF 393 renal = system: RXF 393 renal
SNB-19 CNS = system: SNB-19 CNS
SK-MEL-5 melanoma = system: SK-MEL-5 melanoma
SF-539 CNS = system: SF-539 CNS

Compound	TGI (HL-60(TB) leukemia) [µM]	TGI (UO-31 renal) [µM]	TGI (NCI/ADR-RES ovarian) [µM]	TGI (SK-MEL-2 melanoma) [µM]	TGI (MOLT-4 leukemia) [µM]	TGI (OVCAR-8 ovarian) [µM]	TGI (HT29 colon) [µM]	TGI (HCT-15 colon) [µM]	TGI (OVCAR-3 ovarian) [µM]	TGI (SF-295 CNS) [µM]	TGI (MCF7 breast) [µM]	TGI (NCI-H226 lung) [µM]	TGI (NCI-H522 lung) [µM]	TGI (IGROV1 ovarian) [µM]	TGI (UACC-62 melanoma) [µM]	TGI (NCI-H460 lung) [µM]	TGI (RXF 393 renal) [µM]	TGI (SNB-19 CNS) [µM]	TGI (SK-MEL-5 melanoma) [µM]	TGI (SF-539 CNS) [µM]
O=C1OC[C@@H]2[C@@H](O)CCCCCN12	> 100	> 100	> 100	> 100	> 100	> 100	> 100	> 100	> 100	> 100	> 100	> 100	> 100	> 100	> 100	> 100	> 100	> 100	> 100	> 100
CCOc1ccc2nc(-c3ccc(O)cc3)sc2c1	8.81	> 100	> 100	> 100	> 100	> 100	> 100	> 100	> 100	61.6	> 100	> 100	89.7	> 100	> 100	> 100	> 100	> 100	> 100	> 100
N/C(=N\N=C/c1ccccc1O)NO	> 36	> 95.5	44.2	> 90.8	> 70.2	> 43.7	> 42	> 100	> 100	> 34.4	26.5	64.8	29.8	> 100	38.4	> 43.7	25.9	> 91.3	> 100	28.3
O=C1OC(c2ccccc2)=N/C1=C\c1cccnc1	> 100	> 100	> 100	> 100	> 100	> 100	> 100	> 100	> 100	> 100	> 100	> 100	> 100	> 100	> 100	> 100	> 100	> 100	> 100	> 100
Nc1ncnc2c1ncn2C1OC(COP(=O)(O)O)C(O)C1O (stereo not given)	> 50	> 50	> 32.2	> 50	> 50	15.2	> 50	> 50	> 50	> 50	> 50	> 50	> 50	> 50	> 50	> 50	> 50	> 50	> 50	> 50
CC1(C)CC23C4COC(=O)C2CCC1C3CC4=O (stereo not given)	12.6	90.1	24.8	40.6	63.2	46.6	95.2	21.9	27.7	53.5	47.9	20.6	11.2	69	28.7	29.8	4.76	81.2	32.7	45.1
